Residues, ends and D or L forms follow the SMILES beside them.

In this test the target is T1, Angiotensin-converting enzyme (Oryctolagus cuniculus, UniProt P12822).
T1 sequence (P12822 whole entry): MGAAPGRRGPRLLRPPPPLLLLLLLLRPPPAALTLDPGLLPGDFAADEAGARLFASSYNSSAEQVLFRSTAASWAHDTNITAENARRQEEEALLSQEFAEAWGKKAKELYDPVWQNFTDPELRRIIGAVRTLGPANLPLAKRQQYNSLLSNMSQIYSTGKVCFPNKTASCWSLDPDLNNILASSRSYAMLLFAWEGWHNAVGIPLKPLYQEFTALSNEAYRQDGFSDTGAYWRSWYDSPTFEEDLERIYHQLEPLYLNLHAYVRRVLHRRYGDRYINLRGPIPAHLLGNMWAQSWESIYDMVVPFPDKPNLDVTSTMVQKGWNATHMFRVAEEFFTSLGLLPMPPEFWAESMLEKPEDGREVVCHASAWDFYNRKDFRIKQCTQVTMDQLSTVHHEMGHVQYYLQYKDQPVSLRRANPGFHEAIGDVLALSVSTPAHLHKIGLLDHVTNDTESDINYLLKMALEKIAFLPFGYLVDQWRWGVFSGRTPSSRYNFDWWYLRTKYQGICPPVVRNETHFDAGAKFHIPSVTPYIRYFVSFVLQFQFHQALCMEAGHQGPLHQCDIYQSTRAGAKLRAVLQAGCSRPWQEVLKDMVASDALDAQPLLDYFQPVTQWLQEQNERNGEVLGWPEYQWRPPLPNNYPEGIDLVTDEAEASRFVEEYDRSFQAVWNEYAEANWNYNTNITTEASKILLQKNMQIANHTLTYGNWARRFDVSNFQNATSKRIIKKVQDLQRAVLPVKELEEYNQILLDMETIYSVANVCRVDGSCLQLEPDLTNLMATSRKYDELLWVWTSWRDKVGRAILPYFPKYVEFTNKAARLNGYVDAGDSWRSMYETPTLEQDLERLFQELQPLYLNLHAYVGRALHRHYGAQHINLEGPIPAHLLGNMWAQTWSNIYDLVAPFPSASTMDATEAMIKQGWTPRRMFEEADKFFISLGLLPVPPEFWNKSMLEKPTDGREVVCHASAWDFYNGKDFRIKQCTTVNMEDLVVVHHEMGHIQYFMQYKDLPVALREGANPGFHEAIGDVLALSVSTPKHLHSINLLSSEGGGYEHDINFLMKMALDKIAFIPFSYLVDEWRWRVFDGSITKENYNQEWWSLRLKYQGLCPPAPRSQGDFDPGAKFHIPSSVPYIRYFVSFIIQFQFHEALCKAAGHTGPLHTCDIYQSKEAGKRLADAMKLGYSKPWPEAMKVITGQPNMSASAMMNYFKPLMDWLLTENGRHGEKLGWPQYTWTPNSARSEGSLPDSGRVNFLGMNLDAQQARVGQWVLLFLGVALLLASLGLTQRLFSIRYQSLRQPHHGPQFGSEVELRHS
Briefly: Inhibition of rabbit lung ACE preincubated for 5 mins by spectrophotometric assay.
In the case of `C[C@H](N)C(=O)NCC(=O)O` (H-Ala-Gly-OH), the IC50 amounted to 2500 µM.

Compound `C[C@H](N)C(=O)N[C@@H](Cc1c[nH]cn1)C(=O)O` (H-Ala-His-OH) returned an IC50 of 9000 µM.

`CC(C)[C@H](NC(=O)[C@H](C)N)C(=O)O` (H-Ala-Val-OH) showed an IC50 of 300 µM.

For the compound `CC(C)[C@H](NC(=O)[C@H](C)N)C(=O)N1CCC[C@H]1C(=O)O` (H-Ala-Val-Pro-OH), the IC50 is 340 µM.

For `C[C@H](NC(=O)[C@@H](N)CCCNC(=N)N)C(=O)N1CCC[C@H]1C(=O)O` (H-Arg-Ala-Pro-OH), half-maximal inhibition (IC50) required 16 µM.

`NC(N)=NCCC[C@H](N)C(=O)N[C@@H](CO)C(=O)N1CCC[C@H]1C(=O)O` (H-Arg-Ser-Pro-OH) gave an IC50 of 248 µM.

`CC(C)[C@H](NC(=O)[C@@H](N)Cc1ccccc1)C(=O)N[C@@H](C)C(=O)N1CCC[C@H]1C(=O)O` (H-FVAP-OH): the IC50 was 10 µM.

Regarding `NCC(=O)N[C@@H](CCC(=O)O)C(=O)O` (H-Gly-Glu-OH), it took 5400 µM to reach half-maximal inhibition (IC50).

Take `NCCCC[C@H](NC(=O)CN)C(=O)O` (H-Gly-Lys-OH): the IC50 turned out to be 5400 µM. This counts as millimolar.

`CC[C@H](C)[C@H](N)C(=O)N1CCC[C@H]1C(=O)O` (H-Ile-Pro-OH) showed an IC50 of 150 µM.

For `CC[C@H](C)[C@H](N)C(=O)N[C@@H](Cc1ccc(O)cc1)C(=O)O` (H-Ile-Tyr-OH), 3.7 µM corresponded to half-maximal inhibition (IC50).

`CC(C)C[C@H](N)C(=O)N[C@@H](C)C(=O)N1CCC[C@H]1C(=O)O` (H-Leu-Ala-Pro-OH) gave an IC50 of 0.7 µM.

`CC(C)C[C@H](N)C(=O)N[C@@H](CC(N)=O)C(=O)N[C@@H](Cc1ccc(O)cc1)C(=O)O` (H-Leu-Asn-Tyr-OH) gave an IC50 of 81 µM.

`CC(C)C[C@H](N)C(=O)N[C@@H](CCCCN)C(=O)N1CCC[C@H]1C(=O)O` (H-Leu-Lys-Pro-OH) returned an IC50 of 0.32 µM.

Compound `NCCCC[C@H](NC(=O)CNC(=O)[C@@H](N)Cc1ccccc1)C(=O)O` (H-Phe-Gly-Lys-OH) showed an IC50 of 160 µM. This IC50 lies about 500-fold higher than the previous one.

The compound `N[C@@H](Cc1ccccc1)C(=O)N1CCC[C@H]1C(=O)O` (H-Phe-Pro-OH) registered an IC50 of 210 µM.

The compound `N[C@@H](Cc1ccccc1)C(=O)N1CCC[C@H]1C(=O)N1CCC[C@H]1C(=O)O` (H-Phe-Pro-Pro-OH) gave an IC50 of 78 µM.

In turn, `O=C(NCC(=O)N1CCC[C@H]1C(=O)O)[C@@H]1CCCN1` (H-Pro-Gly-Pro-OH) came in with an IC50 of 97.3 µM.

In turn, `CC(C)C[C@H](NC(=O)[C@@H]1CCCN1)C(=O)N[C@@H](Cc1c[nH]c2ccccc12)C(=O)O` (H-Pro-Leu-Trp-OH) yielded an IC50 of 36 µM.

Consider `CC(C)C[C@H](NC(=O)[C@@H]1CCCN1C(=O)[C@@H]1CCCN1)C(=O)O` (H-Pro-Pro-Leu-OH), for which it took 427 µM to reach half-maximal inhibition (IC50).

`O=C(N[C@@H](Cc1ccc(O)cc1)C(=O)N1CCC[C@H]1C(=O)O)[C@@H]1CCCN1` (H-Pro-Tyr-Pro-OH) displayed an IC50 of 220 µM.

As to `N[C@@H](Cc1ccc(O)cc1)C(=O)N1CCC[C@H]1C(=O)O` (H-Tyr-Pro-OH), the IC50 turned out to be 720 µM. This IC50 lies about 3.3-fold higher than the previous one.

The compound `CC(C)[C@H](N)C(=O)N[C@@H](C)C(=O)N1CCC[C@H]1C(=O)O` (H-Val-Ala-Pro-OH) showed an IC50 of 2 µM.

Turning to `CC(C)[C@H](N)C(=O)N[C@@H](Cc1ccc(O)cc1)C(=O)O` (H-Val-Tyr-OH), the midpoint of inhibition, the IC50, lay at 7 µM.

The values are drawn from ChEMBL document CHEMBL1806429, “Angiotensin-I-converting enzyme inhibitory peptides: Chemical feature based pharmacophore generation” (Eur J Med Chem, 2011).
